{"source": "patent EP0793496B1", "about": "“USE OF HALOGENATED beta-[…] MODEL […] PRODUCE NEURODEGENERATIVE DISORDERS” (priority 1994, dated 1996)", "key": {"[1]": {"tested_on": "Dopaminstoffwechsel im Striatum", "test": "In vivo differential pulse voltammetry of the DOPAC signal in the striatum after unilateral intranigral injection", "design": "species or system Ratte", "details": "for DOPAC-Signal im ipsilateralen Striatum: 10 µg in 2 µl intranigral, before L-DOPA", "excerpt": "Die 1-Trichlormethyl-β-carboline TaClo und N-Me-TaClo wurden im Vergleich zu den bekannten Neurotoxinen MPTP und MPP^+, wie folgt, auf ihre neurotoxische Wirkung überprüft. Die zu untersuchenden Substanzen (TaClo, N-Me-TaClo, DDH-TaFlu, TaBro, MPTP und MPP^+) wurden unter Narkose mit einer Mikroglaskapillare stereotaktisch nach Koordinaten (A: 4,0 mm; L: 1,9 mm; V: 2,0 mm; ab Interaurallinie) von Paxinos und Watson (1982) unilateral in die rechte Substantia nigra pars compacta der Ratte (Han-Wistar, Zentralinstitut für Versuchstierzucht, Hannover, 250-300 g) injiziert. Appliziert wurde ein Volumen von 2 µl über einen Zeitraum von 15 Minuten.\nIm Striatum, dem Projektionsareal der nigralen dopaminergen Neurone, wurde 1 und/oder 3 Wochen nach Applikation der Substanzen der Transmitterstoffwechsel untersucht. Die Untersuchung des Dopaminstoffwechsels wurde dabei in beiden Striata, dem linken Striatum, Projektionsgebiet der unbehandelten linken Substantia nigra, und dem rechten Striatum, Projektionsgebiet der behandelten rechten Substantia nigra, durchgeführt. Die Messung des Dopaminstoffwechsels erfolgte mit Hilfe der in vivo differentiellen Pulsvoltametrie (DPV) mit Mikrokohlefaserelektroden, wie sie 1980 von Gonon beschrieben wurde (Gonon et al., 1980). Dabei werden die extrazellulären Spiegel an 3,4-Dihydroxyphenylessigsäure (DOPAC) erfaßt, einem Metaboliten des Transmitters Dopamin. Die Messung wurde am narkotisierten Tier durchgeführt. Die stereotaktische Implantation von 2 Elektroden (rechtes und linkes Striatum) erfolgte nach Koordinaten (A: 8,5 mm; L: ± 3,5 mm; V: 4,5 mm; ab Interaurallinie) von Paxinos und Watson (Paxinos und Watson, 1982). Die voltametrischen Messungen wurden im Abstand von 8 Minuten durchgeführt. 40 Minuten nach Beginn der Messungen applizierte man den Tieren L-DOPA (100 mg/kg i.p.), um die Restitutionsfähigkeit des Dopaminstoffwechsels durch dieses Anti-Parkinsonmittel zu überprüfen."}, "[2]": {"tested_on": "Substantia nigra pars compacta", "test": "Histology of the substantia nigra pars compacta after unilateral intranigral injection (neuron count, tyrosine hydroxylase staining)", "assay_type": "in vivo, Ratte", "excerpt": "Die ersten Untersuchungen von drei mit TaClo behandelten Ratten mit quantitativer Auswertung der Substantia nigra pars compacta zeigen, daß TaClo, in einer Konzentration von 0.03 µmol einseitig in die Substantia nigra injiziert, bereits nach einer Woche zu einer eindeutigen Reduktion der Neuronenzahl von 12% auf der läsionierten Seite führt. 6-OHDA, in einer annähernd doppelt so hohen Konzentration von 0.05 µmol injiziert, bewirkt einen 51% Abfall der Neuronenzahl.\nNach Anfärbung der Tyrosinhydroxylase mittels Antikörpern zur Darstellung dopaminerger Neurone zeichnen sich pathologische Veränderungen ab, die nach Behandlung mit TaClo auf der läsionierten Seite zu 3 - 6% nekrotischem Gewebsanteil am Gesamtvolumen führen. Bei 6-OHDA beträgt dieser Anteil 25%."}, "dopaminerge Rezeptoren": {"tested_on": "dopaminerge Rezeptoren", "test": "Apomorphine test (Ungerstedt): locomotor activity after subchronic TaClo i.p.", "assay_type": "in vivo, Ratte", "details": "TaClo (Hydrochlorid) 0.2 mg/kg i.p. for four weeks, then apomorphine s.c.", "experimental": "Eine durch Neurotoxine verursachte Denervation des postsynaptischen Rezeptors im dopaminergen System führt zu einer Rezeptorüberempfindlichkeit. Dadurch wird die Reaktion gegenüber verabreichten DA-Agonisten (z.B. Apomorphin) größer. Zur Überprüfung einer z.B. TaClo-bedingten Überempfindlichkeit dopaminerger Rezeptoren wird der Apomorphin-Test nach Ungerstedt (Ungerstedt et al., 1971) benutzt. Dieser läßt nach s.c. Injektion von 0.4 oder 2 mg/kg Apomorphin bei einseitiger Läsion des dopaminergen Systems im Versuchstier in den für die Entstehung des Morbus Parkinson ausschlaggebenden Basalganglien contralaterale Drehungen erkennen und nach mehr oder weniger beidseitiger Schädigung dopaminerger Strukturen bei geringem Schädigungsgrad vermehrte, bei hohem Schädigungsgrad verminderte Lokomotion im Vergleich zum Kontrollkollektiv sichtbar werden.\nDie Verhaltensbeobachtungen fanden während und nach einstündiger Adaption in Beobachtungskäfigen statt. Die Aufzeichnung einzelner spezifischer Parameter wie gelaufene Wegstrecke [DT], Zeit ambulatorischer Bewegungen [AT], Anzahl stereotyper Bewegungen [BMS] und Zeiten stereotyper Bewegungen erfolgte automatisch. […]"}, "[3]": {"tested_on": "Tyrosinhydroxylase-immunoreaktive Neuronen (TH-IR)", "test": "Primary neuron cell culture: number and morphology of TH-IR neurons after 24 h", "assay_type": "cell-based", "details": "for Zahl der TH-IR Zellen/ Kulturschale: added on culture day 9, mean ± S.D.", "excerpt": "(§1) In der Zellkultur zeigen 1-Trichlormethyl-β-carboline neurotoxische Eigenschaften, die mit denen von MPP^+ bzw. MPTP, den bisher bestuntersuchten dopaminergen Neurotoxinen, vergleichbar sind. Das neurotoxische Potential der chlorierten β-Carboline wurde daher mit Methoden untersucht, die sich beim Studium der Wirkung von MPTP und seiner Analoga bewährt haben (Koutsilieri et al., 1993; Michel et al., 1990; Sanchez-Ramos et al., 1988) Deutliche degenerative Veränderungen sind in vitro im Akutversuch bei einer Einwirkungszeit von 24 Stunden ab einer Konzentration von 10 - 100 µM feststellbar. Die Substanzen führen zum Zelltod dopaminerger Primärzellen aus dem Mesencephalon - Zellen, die den bei Morbus Parkinson betroffenen Neuronen des Menschen entsprechen. Dem Zelltod dieser immunhistochemisch eindeutig charakterisierten Neuronen (Antikörper auf Tyrosinhydroxylase) gehen morphologische Veränderungen der Zellen voraus. Dabei nimmt die Gesamt-Zelloberfläche ab, die Dendriten und Axone, (zuerst die sekundären und dann die primären Zellfortsätze) gehen verloren. Diese histologischen Befunde (vgl. auch Tabelle 2) wurden durch bildgebende Verfahren erhärtet und quantifiziert. Die 1-Trichlormethyl-β-carboline zeigen auch toxische Eigenschaften in Gliazellkulturen, wie durch histologische Befunde nachgewiesen werden konnte. Für die Gruppe der 1-Trichlormethyl-β-carboline läßt sich eine Beeinflussung der synaptischen Transmitterkonzentration erwarten, wie an Versuchen mit der Grundstruktur TaClo nachgewiesen werden konnte, deren Zusatz konzentrationsabhängig (IC50 50 µM) zu einer Freisetzung von Dopamin aus den Zellkulturen führt. Dies wurde durch Dopaminbestimmung in den Kulturen mit Hilfe der Hochdruckflüssigkeitschromatographie und elektrochemischer Detektion nachgewiesen. Der Einsatz von ^3H-markiertem Dopamin für Aufnahmestudien weist eine Interaktion der 1-Trichlormethyl-β-carboline mit den Dopaminaufnahmestellen in Zellkulturen nach, die eine wichtige Voraussetzung für die Aufnahme dieser Substanzen in das dopaminerge Neuron und die Entfaltung der neurotoxischen Wirkung darstellen (IC50 für TaClo 100 µM) (vgl. Tabelle 2)."}, "[4]": {"tested_on": "dopaminerge Primärzellen aus dem Mesencephalon", "test": "Dopamine content / dopamine release in the cell cultures (HPLC with electrochemical detection)", "assay_type": "cell-based", "details": "for Dopamingehalt: 24 h, mean ± S.D.", "excerpt": "as §1, with “Der Einsatz von ^3H-markiertem Dopamin für Aufnahmestudien weist eine Interaktion der 1-Trichlormethyl-β-carboline mit den Dopaminaufnahmestellen in Zellkulturen nach, die eine wichtige Voraussetzung für die Aufnahme dieser Substanzen in das dopaminerge Neuron und die Entfaltung der neurotoxischen Wirkung darstellen (IC50 für TaClo 100 µM) (vgl. Tabelle 2).” left out"}, "Dopaminaufnahmestellen": {"molecular_target": "Dopaminaufnahmestellen (Mus musculus, UniProt Q61327)", "sequence (Q61327 whole entry)": "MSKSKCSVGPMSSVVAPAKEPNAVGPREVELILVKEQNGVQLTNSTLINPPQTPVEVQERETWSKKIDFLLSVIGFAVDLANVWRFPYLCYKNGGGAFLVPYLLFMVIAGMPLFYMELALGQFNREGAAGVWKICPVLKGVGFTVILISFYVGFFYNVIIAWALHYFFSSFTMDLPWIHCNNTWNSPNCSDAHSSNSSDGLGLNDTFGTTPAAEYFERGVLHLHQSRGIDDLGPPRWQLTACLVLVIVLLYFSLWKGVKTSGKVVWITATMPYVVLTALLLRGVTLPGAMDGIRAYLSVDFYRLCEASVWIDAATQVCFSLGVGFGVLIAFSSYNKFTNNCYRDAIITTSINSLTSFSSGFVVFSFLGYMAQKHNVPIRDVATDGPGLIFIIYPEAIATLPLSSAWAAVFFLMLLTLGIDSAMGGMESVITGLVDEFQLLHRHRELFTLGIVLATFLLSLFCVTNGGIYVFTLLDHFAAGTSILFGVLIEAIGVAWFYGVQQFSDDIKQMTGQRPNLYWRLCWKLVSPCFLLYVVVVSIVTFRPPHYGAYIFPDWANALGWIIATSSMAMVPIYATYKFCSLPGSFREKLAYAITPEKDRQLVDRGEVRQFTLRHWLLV", "test": "3H-dopamine uptake in cell cultures", "assay_type": "cell-based", "details": "24 h, mean ± S.D.", "excerpt": "as §1, with “Der Einsatz von ^3H-markiertem Dopamin für Aufnahmestudien weist eine Interaktion der 1-Trichlormethyl-β-carboline mit den Dopaminaufnahmestellen in Zellkulturen nach, die eine wichtige Voraussetzung für die Aufnahme dieser Substanzen in das dopaminerge Neuron und die Entfaltung der neurotoxischen Wirkung darstellen (IC50 für TaClo 100 µM) (vgl. Tabelle 2).” left out"}}, "data": [{"smiles": "CN1CCc2c([nH]c3ccccc23)C1C(Cl)(Cl)Cl", "note": "(centres unmarked) [N-Me-TaClo]", "values": [{"measurement": "DOPAC-Signal im ipsilateralen Striatum", "setting": "[1]; 1 week", "result": "signifikant"}, {"measurement": "DOPAC-Signal im ipsilateralen Striatum", "setting": "[1]; 3 weeks", "result": "signifikant"}]}, {"smiles": "C[n+]1ccc(-c2ccccc2)cc1", "note": "[MPP^+, 1-Methyl-4-Phenylpyridinium, reference compound]", "values": [{"measurement": "DOPAC-Signal auf der injizierten Seite", "setting": "[1]; MPP^+ 30 µg in 2 µl intranigral, 1 and 3 weeks", "result": "hochsignifikante (p < 0.01) langanhaltende Verringerung des DOPAC-Signals"}, {"measurement": "Restitutionsfähigkeit des dopaminergen Systems durch DOPA", "setting": "[1]; MPP^+ 30 µg in 2 µl intranigral, 1 week, L-DOPA 100 mg/kg i.p.", "result": "mangelnde Restitutionsfähigkeit"}]}, {"smiles": "NCCc1cc(O)c(O)cc1O", "note": "[6-OHDA, 6-hydroxydopamine, reference compound]", "values": [{"measurement": "Abfall der Neuronenzahl", "setting": "[2]; 0.05 µmol injected", "result": 51, "unit": "%"}, {"measurement": "nekrotischer Gewebsanteil am Gesamtvolumen", "setting": "[2]; 6-OHDA (0.05 µmol), tyrosine hydroxylase antibody staining", "result": 25, "unit": "%"}]}, {"smiles": "FC(F)(F)C1=NCCc2c1[nH]c1ccccc21", "note": "[DDH-TaFlu, 1-Trifluormethyl-3,4-didehydro-β-carbolin]", "values": [{"measurement": "DOPAC-Signal im ipsilateralen Striatum", "setting": "[1]; 1 week", "result": "stärkere Reduktion des DOPAC-Signals"}]}, {"smiles": "ClC(Cl)(Cl)C1NCCc2c1[nH]c1ccccc21", "note": "(racemic) [TaClo]", "values": [{"measurement": "lokomotorische Aktivität nach Apomorphin", "setting": "dopaminerge Rezeptoren", "result": "stieg nach der kleineren Dosierung signifikant an"}, {"measurement": "DOPAC-Signal im ipsilateralen Striatum", "setting": "[1]; 1 week", "result": "signifikant geringere DOPAC-Konzentration"}, {"measurement": "DOPAC-Signal im ipsilateralen Striatum", "setting": "[1]; 3 weeks", "result": "signifikant geringere DOPAC-Konzentration"}, {"measurement": "Reduktion der Neuronenzahl auf der läsionierten Seite", "setting": "[2]; 0.03 µmol injected unilaterally into the substantia nigra, after one week, three rats", "result": 12, "unit": "%"}, {"measurement": "nekrotischer Gewebsanteil am Gesamtvolumen auf der läsionierten Seite", "setting": "[2]; TaClo treatment (0.03 µmol), tyrosine hydroxylase antibody staining", "result": "3 - 6%"}, {"measurement": "Zahl der TH-IR Zellen/ Kulturschale", "setting": "[3]; TaClo 10 µM", "result": "172 ± 69"}, {"measurement": "Länge der Fortsätze", "setting": "[3]; TaClo 10 µM, mean ± S.D.", "result": "80 ± 20", "unit": "µm"}, {"measurement": "Zahl der primären Fortsätze", "setting": "[3]; TaClo 10 µM, mean ± S.D.", "result": "3.1 ± 1.1"}, {"measurement": "Zahl der sekundären Fortsätze", "setting": "[3]; TaClo 10 µM, mean ± S.D.", "result": "2.6 ± 1.6"}, {"measurement": "Zellfläche", "setting": "[3]; TaClo 10 µM, mean ± S.D.", "result": "180 ± 49", "unit": "µm^2"}, {"measurement": "Zahl der TH-IR Zellen/ Kulturschale", "setting": "[3]; TaClo 25 µM", "result": "164 ± 67"}, {"measurement": "Länge der Fortsätze", "setting": "[3]; TaClo 25 µM, mean ± S.D.", "result": "70 ± 20", "unit": "µm"}, {"measurement": "Zahl der primären Fortsätze", "setting": "[3]; TaClo 25 µM, mean ± S.D.", "result": "2.9 ± 1.0"}, {"measurement": "Zellfläche", "setting": "[3]; TaClo 25 µM, mean ± S.D.", "result": "192 ± 47", "unit": "µm^2"}, {"measurement": "Zahl der TH-IR Zellen/ Kulturschale", "setting": "[3]; TaClo 50 µM", "result": "128 ± 47"}, {"measurement": "Länge der Fortsätze", "setting": "[3]; TaClo 50 µM, mean ± S.D.", "result": "70 ± 30", "unit": "µm"}, {"measurement": "Zahl der primären Fortsätze", "setting": "[3]; TaClo 50 µM, mean ± S.D.", "result": "2.6 ± 1.3"}, {"measurement": "Zellfläche", "setting": "[3]; TaClo 50 µM, mean ± S.D.", "result": "159 ± 18", "unit": "µm^2"}, {"measurement": "Zellfläche", "setting": "[3]; TaClo 100 µM, mean ± S.D.", "result": "185 ± 43", "unit": "µm^2"}, {"measurement": "Dopamingehalt", "setting": "[4]; TaClo 10 µM", "result": "0.7 ± 0.2", "unit": "pmoles/ Kulturschale"}, {"measurement": "Dopamingehalt", "setting": "[4]; TaClo 25 µM", "result": "0.6 ± 0.2", "unit": "pmoles/ Kulturschale"}, {"measurement": "IC50", "setting": "[4]; concentration dependent, dopamine determined by HPLC with electrochemical detection, read-out: IC50 Freisetzung von Dopamin aus den Zellkulturen", "result": 50, "unit": "µM"}, {"measurement": "^3H-DA uptake", "setting": "Dopaminaufnahmestellen; TaClo 10 µM", "result": "0.05 ± 0.01", "unit": "pmoles/ Kulturschale"}, {"measurement": "^3H-DA uptake", "setting": "Dopaminaufnahmestellen; TaClo 25 µM", "result": "0.05 ± 0.01", "unit": "pmoles/ Kulturschale"}, {"measurement": "^3H-DA uptake", "setting": "Dopaminaufnahmestellen; TaClo 50 µM", "result": "0.05 ± 0.01", "unit": "pmoles/ Kulturschale"}]}, {"smiles": "CN1CC=C(c2ccccc2)CC1", "note": "[MPTP, 1-Methyl-4-phenyl-1,2,3,6-tetrahydropyridin, reference compound]", "values": [{"measurement": "Kompensation des Neuronenverlusts durch L-DOPA", "setting": "[1]; MPTP 174 µg in 2 µl intranigral, 1 and 3 weeks, L-DOPA 100 mg/kg i.p.", "result": "kompensieren konnte"}, {"measurement": "DOPAC-Wert auf der läsionierten Seite vor L-DOPA", "setting": "[1]; MPTP 174 µg in 2 µl intranigral, 1 week, intact side about 20%, p < 0.05", "result": "~6", "unit": "%"}, {"measurement": "Erniedrigung des DOPAC-Signals", "setting": "[1]; MPTP 174 µg in 2 µl intranigral, 3 weeks", "result": "statistisch nicht mehr signifikant"}]}]}
